# In US9944610B2, “Preparation and method for use in the treatment of respiratory diseases” (Universite Laval, priority 2013, dated 2018):
# Legend:
# LTD4-induced contraction = assay: Relaxant effect on LTD4-induced contraction
# [1] = ASM-024 capsule stability study, NGI testing of fine particle mass (FPM); type: physicochemical; conditions: eight weeks at 40° C./75% RH
# Description: (§1) For method development using the NGI method, size three HPMC capsules were hand filled with forty milligrams of micronized ASM-024. Three capsules were tested according to manufacturer's instructions using the following conditions: • Cup coating agent: 3% PEG400 with 0.1% F68 in acetone • Testing flow rate: 60 LPM • Testing volume: 4 L (4 second actuation) • Device: Miat Monodose Inhaler (standard resistance) • Sample diluent: 70% MeOH: 30% H2O (v/v) • Dilutions • Device—50 ml • Throat—50 ml • Pre-separator—100 ml • Stage 1—MOC—10 ml • Filter—50 ml
# A two month study was performed at accelerated conditions with testing at two weeks, four weeks and eight weeks. Hand filled 40 mg capsules were packed in foil pouches with a 10 g desiccant pouch and heat sealed. Hand filled 40 mg capsules were also packed in foil pouches and heat sealed without a desiccant pouch. All heat seals were hand checked to ensure seal integrity. Pouches were placed on stability at 40° C./75% RH. NGI testing of the capsules stored without desiccant were conducted over the eight week study.
# [2] = Particle size analysis (PSD), Malvern Mastersizer; type: physicochemical
# Description: A 2 g sample of anhydrous crystalline ASM-024 was taken and fed through the Sturtevant Qualification Micronizer. The mill has a 2 inch chamber, and was operated at 80 psig grinding pressure and 90 psig feed pressure. Milled API was recovered from the exhaust filter sock and physically characterized.
# Particle size analysis was performed using a Malvern Mastersizer with a Small Sample Presentation Unit. The dispersant used was ethyl acetate with 2 g of SPAN 85 per liter. Samples were prepared by sonicating 5 mg of sample in 2 ml of dispersant, the sample was then added dropwise to achieve 20% obscuration.
# Magnesium stearate was blended with un-milled ASM-024 in two gram lots. Approximately one gram of ASM-024 was weighed into a 28 ml vial. The appropriate mass of magnesium stearate was then weighed on top of the API and the weight completed to two grams with ASM-024. The materials were blended using a Turbula T2F mixer at 101 rpm for ten minutes. The blended material was passed through the Sturtevant Qualification Micronizer and recovered from the filter sock.
# [3] = NGI aerosol testing, mass retained in device and capsule; type: physicochemical; conditions: 40 mg capsule fill weight, standard and high resistance Miat Monodose inhalers
# Description: as §1
# Aerosol performance and stability was assessed. Milled API was hand filled into size 3 HPMC capsules and size 3 gelatin capsules (40 mg capsule fill weight). NGI testing was performed in duplicate using standard resistance and high resistance Miat Monodose inhalers. […] The high resistance device has provided an increased FPM of ASM-024 from both HPMC and gelatin capsules.
# [4] = PSD of ASM-024 prior to micronization
# [5] = co-milled with 0.2 % w/w magnesium stearate
# [6] = co-milled with 0.5 % w/w magnesium stearate
# [7] = co-milled with 1.0 % w/w magnesium stearate
# [8] = co-milled with 2.0 % w/w magnesium stearate
# [9] = milled, 0.0 % magnesium stearate
structure (smiles),measurement,setting,value
CC[N+]1(CC)CCCN(c2ccccc2)CC1 [ASM-024],relaxant effect on LTD4-induced contraction,LTD4-induced contraction,no relaxant effect
same,decrease in FPM,[1]; 40 mg capsules in foil pouches with 10 g desiccant pouch,~5.7%
same,decrease in FPM,[1]; 40 mg capsules in foil pouches without desiccant,10.9%
same,d10,[2]; [4],13.92 μm
same,d50,[2]; [4],41.67 μm
same,d90,[2]; [4],91.89 μm
same,d10,[2]; after one pass in jet air mill,0.78 μm
same,d50,[2]; after one pass in jet air mill,2.10 μm
same,d90,[2]; after one pass in jet air mill,4.70 μm
same,d10,[2]; [5],0.89 µm
same,d50,[2]; [5],1.74 µm
same,d90,[2]; [5],3.33 µm
same,d10,[2]; [6],0.89 µm
same,d50,[2]; [6],1.86 µm
same,d90,[2]; [6],3.94 µm
same,d10,[2]; [7],0.9 µm
same,d50,[2]; [7],1.7 µm
same,d90,[2]; [7],3.17 µm
same,d10,[2]; [8],0.91 µm
same,d50,[2]; [8],1.69 µm
same,d90,[2]; [8],3.11 µm
same,d10,[2]; [9],0.97 µm
same,d50,[2]; [9],1.95 µm
same,d90,[2]; [9],3.8 µm
same,mass of ASM-024 retained in the device and capsule after NGI testing,[3],less than 20 mg
